Usually IC50 stands for the concentration needed to halve the response being measured.

The source of these data is patent publication US20220339291A1, “ANTIBODY-DRUG CONJUGATES THAT TARGET DLK1 AND USES THEREOF” (LegoChem Biosciences, Inc., priority 2019, published 2022).

For assay [1], the system named is MIA-PaCa-2-DLK1 over-expressing cell line. Briefly: In vitro cytotoxicity (cell proliferation inhibition, SRB dye), DLK1 over-expressing cells. In kind it is cell-based, human. To be noted: MIA-PaCa2 DLK1 positive. The method, then:
(§1) The cancer cell line cell proliferation inhibition activity of the drugs stated in Table 3 below and the ADCs prepared in <Embodiment 3> above was measured. For this purpose, commercially available human pancreatic cancer cell line MIA-PaCa2 (DLK1 negative or normal) and MIA-PaCa-2-DLK1 over-expressing cell line were used. As the drug, MMAF-OMe was used as the ADC, and the ADCs of Table 2 were used. In a 96-well plate, each well was seeded with 4,000 to 5,000 of the respective cancer cell lines for the 72-hour treatment group, 2,000 to 3,000 cells for the 96-hour treatment group, and 800 to 1,000 cells for the 168-hour treatment group. After culturing for 24 hours, they were treated with the drug and ADC at a concentration of 0.0015 to 10.0 nM (serially diluted threefold). 72, 96 and 168 hours later, respectively, the number of live cells was measured using SRB (Sulforhodamine B) dye.
In general terms: Sulforhodamine B stains cellular protein and so reports cell mass.

For assay [2], the system named is MIA-PaCa2 (DLK1 negative or normal). Briefly: In vitro cytotoxicity (cell proliferation inhibition, SRB dye), DLK1-negative cells. The format is cell-based, human. How it is done:
as §1

Assay [3] concerns cells where DLK1 is overexpressed. To be noted: confirmed in Korean Patent Application No. 10-2018-0107639; cited from earlier work.
Assay [4] deals with T1, DLK1 over-expressed on MIA-PaCa-2 cells (UniProt P80370 24-383, limits assumed).
T1 sequence (looked up): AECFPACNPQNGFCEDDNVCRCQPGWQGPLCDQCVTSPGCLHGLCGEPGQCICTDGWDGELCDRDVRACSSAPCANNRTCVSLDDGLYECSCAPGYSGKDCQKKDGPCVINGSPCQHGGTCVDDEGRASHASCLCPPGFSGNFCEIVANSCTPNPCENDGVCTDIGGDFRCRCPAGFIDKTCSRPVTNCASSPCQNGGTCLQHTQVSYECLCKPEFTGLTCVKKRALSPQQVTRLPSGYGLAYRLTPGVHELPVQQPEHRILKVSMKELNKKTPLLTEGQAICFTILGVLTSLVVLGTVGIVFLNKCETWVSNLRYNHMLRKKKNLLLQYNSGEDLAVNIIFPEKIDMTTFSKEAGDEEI
Briefly: cell-based or functional assay.

Numbering of substitutions follows the chain as printed. Like-named read-outs stand apart in the source and are kept apart here. Non-standard residues stand in square brackets, D forms with d. Residues, ends and D or L forms follow the SMILES beside them. Dolaproine = CO[C@@H]([C@@H]1CCCN1)[C@@H](C)C(=O)O; Dil = CC[C@H](C)[C@H](NC)[C@@H](CC(=O)O)OC; NMeV = CN[C@H](C(=O)O)C(C)C

Regarding `CC[C@H](C)[C@@H]([C@@H](CC(=O)N1CCC[C@H]1[C@H](OC)[C@@H](C)C(=O)N[C@@H](Cc1ccccc1)C(=O)OC)OC)N(C)C(=O)[C@@H](NC(=O)[C@@H](NC)C(C)C)C(C)C` [MMAF-OMe] (H-[NMeV]V[Dil][Dolaproine]F-OMe), the half-inhibitory concentration (IC50) in assay [1] (72 hr treatment, read-out: IC50 MIA-PaCa2-DLK1 positive 72 hr) came out at 0.3 nM; in assay [1] (96 h treatment, read-out: IC50 MIA-PaCa2-DLK1 positive 96 h), 0.13 nM; in assay [1] (168 hr treatment, read-out: IC50 MIA-PaCa2-DLK1 positive 168 hr), 0.06 nM; in assay [2] (72 hr treatment, read-out: IC50 MIA-PaCa2-DLK1 negative 72 hr), 0.41 nM; in assay [2] (96 h treatment, read-out: IC50 MIA-PaCa2-DLK1 negative 96 h), 0.12 nM; in assay [2] (168 hr treatment, read-out: IC50 MIA-PaCa2-DLK1 negative 168 hr), 0.12 nM.

B1: 27F7: anti-DLK1 human monoclonal antibody, heavy chain SEQ ID NO. 109, light chain SEQ ID NO. 110 (antibody, V domains shown)
VH: QMQLVESGGGLVKPGGSLTLSCDATGFNFGSYYMNWVRQAPGKGLEWLAHISSTGRTIYYADSVKGRFTISRDNAKSSLDLQMNSLRAEDTAVYYCARDQGYPFGMDVWGHGTTVTVSS
VL: QLVLTQPSSVSGAPGQRVTISCTGSSSNIGAGYDVDWYQQLPGTAPKLLIYGNTNRPSGVPDRFSGSKSGTSASLAITGLQAEDDSDYYCQSYDSSLSAWVFGGGTKLTVL
Consider B1, for which, in assay [3], the “binding to cells where DLK1 is overexpressed” value (“binding” below) is given as “capable of binding to cells where DLK1 is overexpressed”.

B2: ADC6 (18A5 conjugated to Compound 6) (other)
VH: QVQLVQSGGAVVQPGHSLRLSCEASGFKFKDYGMHWVRQAPGKGLEWLAVISHDGRNKNYADSVKGRLTISRDNSKNTLSFQMNSLRAEDTAVYYCVRDWSYAFDIWGQGTLVTVSS
VL: DIQMTQSPSFLSASVGDRVNITCRASQDISRRLAWYQQKPGKAPKLLIYGAASLQSAVASRFSGSGSGTEFTLTISSLQPEDFANYYCQQIYTTPLTFGGGTKVEIK
With B2, in assay [4], the “IC50 (nM), cell proliferation inhibition (SRB), MIA-PaCa2-DLK1 positive, 168 hr” value was 0.21 nM.

B3: 18A5_AM_1A12: 18A5 mutant anti-DLK1 antibody, heavy chain SEQ ID NO. 127, light chain SEQ ID NO. 128 (antibody, V domains shown)
VH: B2 VH with A10G, H16G, E23A
VL: DIQMTQSPSFLSASVGDRVTITCRASHDISSSLAWYQQKSGKAPKLLIYSASNLKSGVPSRFSGSGSGTDFSLTISSLQPEDFATYYCQQSYTTVLTFGGGTKLEIK
On to B3, for which the “binding” value in assay [3] is reported as “capable of binding to cells where DLK1 is overexpressed”.

B4: 18A5: anti-DLK1 human monoclonal antibody, heavy chain SEQ ID NO. 101, light chain SEQ ID NO. 102 (antibody, V domains shown)
VH: B2 VH
VL: B2 VL
Turning to B4, in assay [3], the “binding” value is given as “capable of binding to cells where DLK1 is overexpressed”.

B5: 18A5_LS_1A10: 18A5 mutant anti-DLK1 antibody, heavy chain SEQ ID NO. 101, light chain SEQ ID NO. 126 (antibody, V domains shown)
VH: B2 VH
VL: DIQMTQSPSSLSASLGDRVTITCRASQGISSALAWYQQKPGKAPKLLIYAASSLQSGVPSRFSGSGSGTDFTLTINSLQPEDFATYYCQQSYTTPLTFGGGTKVEIK
On to B5, for which the “binding” value in assay [3] is listed as “capable of binding to cells where DLK1 is overexpressed”.
